According to patent publication US9518022B2, “Anti-HIV compounds” (priority 2014, dated 2016):

Columns and labels:
[1] = system: HIV-1 NL4-3 viral clone engineered to express Renilla luciferase in place of Nef; test: microbe, parasite or virus in culture; assay type: cell-based; conditions: Human immunodeficiency virus 1, NL43, MT2, 96 h
Procedure: The present assay was used to screen candidate antiviral compounds by quantification of virus spread and production over several rounds of infection in vitro. MT-2, a HIV-1 permissive human T-cell line, was seeded in microtiter plates and was simultaneously treated with serially diluted compound and inoculated with a HIV-1 NL4-3 viral clone engineered to express Renilla luciferase in place of Nef. Following treatment, the culture was incubated for 96 hours. After the incubation, media was collected and used to estimate relative infectivity on the indicator cell line, TZM-bl. Additionally, viral spread was quantified by measuring luciferase activity via a commercially available luciferase substrate. In parallel, MT-2 cells were seeded and inoculated with mock virus in the presence of serially diluted compound. Compound toxicity was quantified 96 hours after treatment with AlamarBlue.
MT-2 (NIH Aids reagent program 237) cells were grown and maintained in an incubator at 37° C. with 5% CO2 using a basal medium of RPMI-1640 supplemented with 10% FBS. Cells were seeded in 100 μl at 2×10^4 cells/well in white walled 96-well microtiter plates. Candidate compounds were 3-fold serially diluted in the appropriate solvent. Solvent without compound was used as a no drug reference. Cells were inoculated at a multiplicity of 0.027 with an HIV-1 NL4-3 virus stock engineered to express Renilla luciferase in place of Nef. Diluted virus stock was first added to serially diluted compound. Compound and virus were delivered to cells in an equal volume (100 μl) and treated cultures were returned to the incubator for 96 hours. In parallel, plates for cytotoxicity estimates were prepared in the same way except cells were plated in clear walled 96-well microtiter plates and were mock infected.
At 96 hours post infection, 100 μl virus containing culture supernatant was collected from the treated and infected cultures and serially diluted in DMEM supplemented with 10% FBS, 1% sodium pyruvate, and 20 μg/ml DEAE dextran. One day prior, TZM-bl (ATCC PTA-5659) were cultured in basal medium of DMEM supplemented with 10% FBS and 1% sodium pyruvate and seeded at 7.5×10^3 cells/well in black walled 96-well microtiter plates. Diluted virus containing culture supernatant was transferred to TZM-bl cultures and incubated for 48 hours at 37° C. with 5% CO2. Infected TZM-bl cultures were fixed for 5 minutes with a 1% formaldehyde/0.2% gluteraldehyde/PBS solution then washed three times with PBS. Fixed cultures were incubated at 37° C. for 25 minutes with a 200 μg/ml MUG (4-Methylumbelliferyl β-D-[…])/DMEM solution. The reaction was stopped with an equal volume of 1M sodium carbonate and read at 360, 449 nm on fluorescence plate reader (Biotek).
At 96 hours post infection, 100 μl of culture supernatant was removed from the treated and infected cultures and EnduRen live cell substrate (Promega) was added at a final concentration 1.3 μg/ml. Cells were incubated for 1.5 hours at 37° C. with 5% CO2 then read on a luminescence plate reader (Biotek).
For all assays, data was imported into Accelrys Assay Explorer 3.3. In Assay Explorer, % inhibition (antiviral or cytotoxicity) was calculated using the solvent control as a reference by the following equation: 1−(SignalCompound/SignalReference). The % Inhibition and compound concentration data was fitted using the following 4-parameter logistic model (Assay Explorer model 42):
[formula] where X is compound concentration, Y is % inhibition, D is the maximum % Inhibition (constrained to 100%), C is IC50 value or inflection point, B is the hill slope, and A is the minimum % inhibition (constrained to 0%). The IC50 value is reported as the EC50 or CC50 depending on the assay endpoint. EC50 represents the effective concentration at which virus replication is inhibited by 50 percent. CC50 represents the concentration that results in the death of 50 percent of the host cells. […]

[2] = Cytotoxicity assay (AlamarBlue) in mock infected MT-2 cells; assay type: cell-based; conditions: human
Summary of the method: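 MT-2 cells at 2×10^4 cells/well, mock-infected, treated with 3-fold serial compound dilutions for 96 h at 37 °C. AlamarBlue added for 3 h, fluorescence read at 545/590 nm; % inhibition versus solvent control fitted to a 4-parameter logistic to give CC50.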

For `COc1cc2c(cc1OCc1ccccc1)CCNC2/C=C/c1cccc2ccn(C(=O)OC(C)(C)C)c12` (centres unmarked) [CN, tert-butyl 7-[(E)-2-[6-(benzyloxy)-7-methoxy-1,2,3,4-tetrahydroisoquinolin-1-yl]ethenyl]-1H-indole-1-carboxylate], the EC50 [1] was 1.83 µM and the CC50 at 96 h [2] was 19.6 µM.
Work on `COc1cc2c(cc1/C=C/C1NCCc3cc(OCc4ccccc4)c(OC)cc31)OCO2` (centres unmarked) [CR, 6-(benzyloxy)-7-methoxy-1-[(E)-2-(6-methoxy-2H-1,3-benzodioxol-5-yl)ethenyl]-1,2,3,4-tetrahydroisoquinoline] yielded an EC50 [1] of 0.12 µM and a CC50 at 96 h [2] of 3.3 µM.
For `COc1cc2c(cc1/C=C/C1NCCc3cc(OCc4ccccc4)c(OC)cc31)OCCO2` (centres unmarked) [CQ, 6-(benzyloxy)-7-methoxy-1-[(E)-2-(7-methoxy-2,3-dihydro-1,4-benzodioxin-6-yl)ethenyl]-1,2,3,4-tetrahydroisoquinoline], the EC50 [1] was 0.06 µM and the CC50 at 96 h [2] was 1.4 µM.
For `COc1cc2c(cc1OCc1ccccc1)CCNC2/C=C/c1cccnc1N(C)C` (centres unmarked) [CU, 3-[(E)-2-[6-(benzyloxy)-7-methoxy-1,2,3,4-tetrahydroisoquinolin-1-yl]ethenyl]-N,N-dimethylpyridin-2-amine], the EC50 [1] was 1.4 µM and the CC50 at 96 h [2] was 19.9 µM.
`COc1cc2c(cc1OCc1ccccc1)CCNC2/C=C/c1cccc2c1ccn2C(=O)OC(C)(C)C` (centres unmarked) [CK, tert-butyl 4-[(E)-2-[6-(benzyloxy)-7-methoxy-1,2,3,4-tetrahydroisoquinolin-1-yl]ethenyl]-1H-indole-1-carboxylate] showed an EC50 [1] of 0.805 µM and a CC50 at 96 h [2] of 5.99 µM.
`COc1cc(/C=C/C2NCCc3cc(OCc4ccccc4)c(OC)cc32)c(N(C)C)cc1OC` (centres unmarked) [CT, 2-[(E)-2-[6-(benzyloxy)-7-methoxy-1,2,3,4-tetrahydroisoquinolin-1-yl]ethenyl]-4,5-dimethoxy-N,N-dimethylaniline] gave an EC50 [1] of 0.2 µM and a CC50 at 96 h [2] of 8.9 µM.
For `COc1cc2c(cc1OCc1ccccc1)CCNC2/C=C/c1ccc2ccn(C(=O)OC(C)(C)C)c2c1` (centres unmarked) [CS, tert-butyl 6-[(E)-2-[6-(benzyloxy)-7-methoxy-1,2,3,4-tetrahydroisoquinolin-1-yl]ethenyl]-1H-indole-1-carboxylate], the EC50 [1] was 0.912 µM and the CC50 at 96 h [2] was 6.15 µM.
`COc1cc2c(cc1OCc1ccccc1)CCNC2/C=C/c1ccc2c(ccn2C(=O)OC(C)(C)C)c1` (centres unmarked) [CM, tert-butyl 5-[(E)-2-[6-(benzyloxy)-7-methoxy-1,2,3,4-tetrahydroisoquinolin-1-yl]ethenyl]-1H-indole-1-carboxylate] showed an EC50 [1] of 1.3 µM and a CC50 at 96 h [2] of 10 µM.
`COc1cc2c(cc1OCc1ccccc1)CCNC2/C=C/c1cccc2[nH]ccc12` (centres unmarked) [CL, 6-(benzyloxy)-1-[(E)-2-(1H-indol-4-yl)ethenyl]-7-methoxy-1,2,3,4-tetrahydroisoquinoline] gave an EC50 [1] of 1.5 µM and a CC50 at 96 h [2] of 7.2 µM.
Work on `COc1cc2c(cc1OCc1ccccc1)CCNC2/C=C/c1ccc2cn[nH]c2c1` (centres unmarked) [BT, 6-(benzyloxy)-1-[(E)-2-(1H-indazol-6-yl)ethenyl]-7-methoxy-1,2,3,4-tetrahydroisoquinoline] yielded an EC50 [1] of 0.613 µM and a CC50 at 96 h [2] of 7.98 µM.
`COc1cc2c(cc1OCc1ccccc1)CCNC2/C=C/c1ccc(F)c(O)c1F` (centres unmarked) [CO, 3-[(E)-2-[6-(benzyloxy)-7-methoxy-1,2,3,4-tetrahydroisoquinolin-1-yl]ethenyl]-2,6-difluorophenol] showed an EC50 [1] of 6 µM and a CC50 at 96 h [2] of 10 µM.
`CCOC(=O)CCCOc1cc(/C=C/C2NCCc3cc(OCc4ccccc4)c(OC)cc32)ccc1OC` (centres unmarked) [CV, ethyl 4-{5-[(E)-2-[6-(benzyloxy)-7-methoxy-1,2,3,4-tetrahydroisoquinolin-1-yl]ethenyl]-2-methoxyphenoxy}butanoate] showed a CC50 at 96 h [2] of 2.7 µM.
Work on `COc1cc2c(cc1OCc1ccccc1)CCNC2/C=C/c1cc(C(C)C)c(OC)cc1C` (centres unmarked) [BW, 6-(benzyloxy)-7-methoxy-1-[(E)-2-[4-methoxy-2-methyl-5-(propan-2-yl)phenyl]ethenyl]-1,2,3,4-tetrahydroisoquinoline] yielded a CC50 at 96 h [2] of 1.88 µM.
Molecule `COc1cc2c(cc1OCc1ccccc1)CCNC2/C=C/c1cccc(S(C)(=O)=O)c1` (centres unmarked) [CP, 6-(benzyloxy)-1-[(E)-2-(3-methanesulfonylphenyl)ethenyl]-7-methoxy-1,2,3,4-tetrahydroisoquinoline] has an EC50 [1] of 3.07 µM and a CC50 at 96 h [2] of 20.6 µM.
